Source: ChEMBL document CHEMBL1201862, “PubChem BioAssay data set” (2004)
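Each compound was tested at five concentrations against cells in 96-well plates for 48 hours. At the GI50, growth is halved.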 Activity calls are given as the source filed them. Cut-off read from the data, not from the text of the source: active = GI50 up to about 1.1 µM and inactive = higher.

What was measured:
Test in all cases: growth of human tumour cells (NCI), 48 h
DMS-114 = tested on: DMS-114
KM12 = tested on: KM12
TK-10 = tested on: TK-10
OVCAR-8 = tested on: OVCAR-8
LXFL 529 = tested on: LXFL 529
SF-539 = tested on: SF-539
HOP-92 = tested on: HOP-92
SF-268 = tested on: SF-268
DMS-273 = tested on: DMS-273
OVCAR-4 = tested on: OVCAR-4
SNB-19 = tested on: SNB-19
HL-60 = tested on: HL-60
UACC-257 = tested on: UACC-257
ACHN = tested on: ACHN
LOX IMVI = tested on: LOX IMVI
HOP-62 = tested on: HOP-62
HOP-18 = tested on: HOP-18
HT-29 = tested on: HT-29
KM-20L2 = tested on: KM-20L2
NCI-H226 = tested on: NCI-H226
SN12C = tested on: SN12C
OVCAR-3 = tested on: OVCAR-3
K562 = tested on: K562
DLD-1 = tested on: DLD-1
CAKI-1 = tested on: CAKI-1
XF498 = tested on: XF498
OVCAR-5 = tested on: OVCAR-5
786-0 = tested on: 786-0
CCRF-CEM = tested on: CCRF-CEM
UO-31 = tested on: UO-31
U-251 = tested on: U-251
SK-OV-3 = tested on: SK-OV-3
MOLT-4 = tested on: MOLT-4
Malme-3M = tested on: Malme-3M
SF-295 = tested on: SF-295
M14 = tested on: M14
RPMI-8226 = tested on: RPMI-8226
IGROV-1 = tested on: IGROV-1
HCT-15 = tested on: HCT-15
HCC 2998 = tested on: HCC 2998
UACC-62 = tested on: UACC-62
A498 = tested on: A498
NCI-H522 = tested on: NCI-H522
NCI-H23 = tested on: NCI-H23
NCI-H460 = tested on: NCI-H460
COLO 205 = tested on: COLO 205
EKVX = tested on: EKVX
A549 = tested on: A549
M19-MEL = tested on: M19-MEL
SW-620 = tested on: SW-620
SNB-78 = tested on: SNB-78

## C#Cc1c(C)c(/C=C/C(C)=C\C(=O)OC)n(C)c1C
DMS-114
  GI50: 19 µM (inactive)
KM12
  GI50: 99.1 µM (inactive)
TK-10
  GI50: > 100 µM (inactive)
OVCAR-8
  GI50: 70.1 µM (inactive)
LXFL 529
  GI50: 94 µM (inactive)
SF-539
  GI50: 67.5 µM (inactive)
HOP-92
  GI50: > 100 µM (inactive)
SF-268
  GI50: 68.5 µM (inactive)
DMS-273
  GI50: > 100 µM (inactive)
OVCAR-4
  GI50: 75.9 µM (inactive)
SNB-19
  GI50: > 100 µM (inactive)
HL-60
  GI50: 6.65 µM (inactive)
UACC-257
  GI50: > 100 µM (inactive)
ACHN
  GI50: 47.8 µM (inactive)
LOX IMVI
  GI50: > 100 µM (inactive)
HOP-62
  GI50: 71.1 µM (inactive)
HOP-18
  GI50: > 100 µM (inactive)
HT-29
  GI50: 28.6 µM (inactive)
KM-20L2
  GI50: 46.6 µM (inactive)
NCI-H226
  GI50: > 100 µM (inactive)
SN12C
  GI50: > 100 µM (inactive)
OVCAR-3
  GI50: 96.2 µM (inactive)
K562
  GI50: 8.97 µM (inactive)
DLD-1
  GI50: 45.4 µM (inactive)
CAKI-1
  GI50: > 100 µM (inactive)
XF498
  GI50: > 100 µM (inactive)
OVCAR-5
  GI50: > 100 µM (inactive)
786-0
  GI50: 55.1 µM (inactive)
CCRF-CEM
  GI50: 33.8 µM (inactive)
UO-31
  GI50: 63.4 µM (inactive)
U-251
  GI50: > 100 µM (inactive)
SK-OV-3
  GI50: > 100 µM (inactive)
MOLT-4
  GI50: 7.06 µM (inactive)
Malme-3M
  GI50: > 100 µM (inactive)
SF-295
  GI50: > 100 µM (inactive)
M14
  GI50: > 100 µM (inactive)
RPMI-8226
  GI50: 18.8 µM (inactive)
IGROV-1
  GI50: > 100 µM (inactive)
HCT-15
  GI50: 92.9 µM
HCC 2998
  GI50: > 100 µM (inactive)
UACC-62
  GI50: 70.8 µM (inactive)
A498
  GI50: 81.3 µM (inactive)
NCI-H522
  GI50: 50.7 µM (inactive)
NCI-H23
  GI50: > 100 µM (inactive)
NCI-H460
  GI50: 63.7 µM (inactive)
COLO 205
  GI50: 61.2 µM (inactive)
EKVX
  GI50: > 100 µM (inactive)
A549
  GI50: > 100 µM (inactive)
M19-MEL
  GI50: > 100 µM (inactive)
SW-620
  GI50: > 100 µM (inactive)
SNB-78
  GI50: > 100 µM (inactive)
